14 compounds from patent US8791100B2 (Novartis AG, priority 2010, dated 2014) can be followed below.

For assay [1], the system named is peripheral lymphocyte counts. In words: Measurement of circulating lymphocytes after oral administration (rats). The class given is in vivo. As to conditions: Lewis rats, 30 mg/kg p.o., vs mean counts of untreated animals, mean ± STDEV. The procedure: (§1) The compounds of the invention, e.g. compounds of formula (I) typically induce the depletion of blood lymphocyte as may be determined in the assay described below. Moreover, compounds of the invention, e.g. compounds of formula (I) are typically efficacious in the said assay also when administered via the per oral route of administration.
(§2) Measurement of Circulating Lymphocytes:
(§3) The test compounds (or salts thereof) are dissolved in a vehicle such as water, saline, PEG (polyethylene glycol) 200, or PBS (phosphate buffered saline). Adult mice (C57BU6NCrl strain, female, 18-20 g) or rats (Lewis strain, male, 6-12 weeks old) are administered up to 60 mg/kg of the test compounds in 10 ml/kg (C57BU6NCrl mice) or 2 ml/kg (Lewis rats) vehicle via per oral application. The vehicle or a reference salt and FTY720 (0.3 mg/kg) are used as negative and positive controls, respectively. Blood is collected from the sublingual vein at single time points, e.g. 14 or 24 hours after the test compound administration, under short isoflurane anesthesia. Two to three animals are used in each group. Whole blood samples are subjected to hematology analysis. Peripheral lymphocyte counts are determined using an automated analyzer. The Haemathology System uses a combination of light scatter, cytochemical staining and nuclear density on two independent channels to measure the total and differential white cell counts. The reduction of lymphocytes provoked by each test compound is calculated by comparing the lymphocyte counts measured after each treatment to the mean lymphocyte counts measured in five to eight untreated mice or rats, respectively. The data are presented as mean±STDEV.

Assay [2] concerns peripheral lymphocyte counts. In words: Measurement of circulating lymphocytes after oral administration (mice). The class given is in vivo. The conditions noted are these: Mus musculus, C57BL/6NCrl mice, 30 mg/kg p.o., 24 hours, vs mean counts of untreated animals, mean ± STDEV, read-out: Residual Lymphocyte Counts 24 hours after p.o. dosing. The protocol: as §1, §2, §3
A further assay concerns the target human S1P1 receptors (Homo sapiens (Human), UniProt P21453). Description: Human S1P1 Receptor Calcium FLIPR Antagonist Assay (HeLa Gα16 S1P1). The class given is cell-based. The conditions noted are these: relative antagonism vs probing agonist GNF-AC-1 at EC80, HeLa-S1P1/Gα16 cells. The text has this:
Human S1P1 Receptor Calcium FLIPR Antagonist Assay
The assay measures intracellular changes of Ca^2+ mediated by the synthetic probing agonist 3-{[2-(2-Trifluoromethyl-biphenyl-4-yl)-benzo[b]thiophen-5-ylmethyl]-amino}-propionic acid (GNF-AC-1) in the HeLa-S1P1/Gα16 cell clone 1: HeLa (human cervix carcinoma, ATCC CCL2) cells stably expressing N-terminally myc-tagged human S1P1 receptors (GenBank™ accession No. NM_001400; UNIPROT P21453) and promiscuous Gα16 protein (GenBank™ accession number M63904, Swissprot P30679) are cultured at 37° C., 5% CO2, and 95% relative humidity. The cells are plated in 384 well black plates (10′000 cells per well). After 24 hours the cells are loaded with Fluo-4-AM (1.6 μM in HBSS and 2.5 mM probenicid) for 1 hour at 37° C. After washing, the cells are transferred to the FLIPR. The test compounds are added at different concentrations (≦100 μM) in HBSS in the presence of 0.1% BSA and changes in fluorescence are recorded (indication of agonism). The probing agonist is added 20-30 minutes afterwards to the wells at a concentration giving 80% of the maximal activity (EC80). After each addition, time points are collected as follows: 20 time points (2 seconds) before the addition of the agonist (Fmin) and 60 time points (1 or 2 seconds) after the addition of the probing agonist. This allows the determination of the maximal fluorescence (Fmax). The ratio (Fmax−Fmin)/Fmin is plotted against the log of the concentration of the test compounds and the IC50 (relative antagonism) is calculated using the XLfit-4 software. […] A concentration-response curve of the probing agonist is determined on each plate in parallel.

SMILES strings stand for the structures.

By IC50 is commonly meant the concentration needed to halve the response being measured.

Sequence of human S1P1 receptors (P21453 whole entry): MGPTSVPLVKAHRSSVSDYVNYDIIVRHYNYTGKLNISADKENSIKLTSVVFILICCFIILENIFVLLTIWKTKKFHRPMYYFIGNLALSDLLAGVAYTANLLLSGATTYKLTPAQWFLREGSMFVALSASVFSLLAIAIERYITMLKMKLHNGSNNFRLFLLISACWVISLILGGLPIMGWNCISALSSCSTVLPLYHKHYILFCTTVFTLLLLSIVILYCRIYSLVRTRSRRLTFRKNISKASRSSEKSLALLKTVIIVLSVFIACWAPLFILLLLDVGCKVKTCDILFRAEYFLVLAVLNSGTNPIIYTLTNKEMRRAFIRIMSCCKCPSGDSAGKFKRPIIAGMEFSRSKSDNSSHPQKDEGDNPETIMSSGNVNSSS

As to `Cc1cc([C@H](Nc2ccc(C)c(CN3CC[C@@H](C(=O)O)C3)c2C)C(F)(F)F)ccc1Cl` [Example 30, (R)-1-{3-[(S)-1-(4-Chloro-3-methyl-phenyl)-2,2,2-trifluoro-ethylamino]-2,6-dimethyl-benzyl}-pyrrolidine-3-carboxylic acid], the “Residual Lymphocyte Counts 24 hours after p.o. dosing” value in assay [1] is 26.9 ± 13.0%. For the same compound, in assay [2], the response vs control in vivo at 30 mg/kg came out at 19.4%. In addition, the IC50 on human S1P1 receptors turned out to be 0.9 nM.
As to `CC[C@@H](Nc1ccc(C)c(CN2CC[C@@H](C(=O)O)C2)c1C)c1ccc(Cl)c(C)c1` [Example 32, (R)-1-{3-[(R)-1-(4-Chloro-3-methyl-phenyl)-propylamino]-2,6-dimethyl-benzyl}-pyrrolidine-3-carboxylic acid], the response vs control in vivo at 30 mg/kg in assay [2] came out at 17%. Also, the IC50 at human S1P1 receptors was 0.8 nM.
In the same order, the values of `CC[C@@H](Nc1ccc(C)c(CN2CC(C(=O)O)C2)c1C)c1ccc(Cl)c(C)c1` [Example 33, 1-{3-[(R)-1-(4-Chloro-3-methyl-phenyl)-propylamino]-2,6-dimethyl-benzyl}-azetidine-3-carboxylic acid] are 16.2% and 0.6 nM.
On the same counts, the results for `CCc1ccc(N[C@@H](c2ccc(Cl)c(C)c2)C(F)(F)F)cc1CN1CC[C@@H](C(=O)O)C1` [Example 34, (R)-1-{5-[(S)-1-(4-Chloro-3-methyl-phenyl)-2,2,2-trifluoro-ethylamino]-2-ethyl-benzyl}-pyrrolidine-3-carboxylic acid] are 24.2% and 0.8 nM.
Turning to `CC[C@@H](Nc1ccc(C)c(CN2CC(C(=O)O)C2)c1)c1cc(C)c(Cl)c(C)c1` [Example 41, 1-{5-[(R)-1-(4-Chloro-3,5-dimethyl-phenyl)-propylamino]-2-methyl-benzyl}-azetidine-3-carboxylic acid], in assay [2], the response vs control in vivo at 30 mg/kg came to 20.2%. Besides, the IC50 at human S1P1 receptors worked out at 1.3 nM.
In the case of `CC[C@@H](Nc1ccc(C)c(CN2CC[C@@H](C(=O)O)C2)c1)c1cc(C)c(Cl)c(C)c1` [Example 42, (R)-1-{5-[(R)-1-(4-Chloro-3,5-dimethyl-phenyl)-propylamino]-2-methyl-benzyl}-pyrrolidine-3-carboxylic acid], in assay [1], the “Residual Lymphocyte Counts 24 hours after p.o. dosing” value is on record as 22.2% ± 6.7. Also, the response vs control in vivo at 30 mg/kg in assay [2] was found to be 19.4%. Also, at human S1P1 receptors, the concentration for half-maximal inhibition (IC50) was determined as 1 nM.
Turning to `CC[C@@H](Nc1ccc(Cl)c(CN2CC[C@@H](C(=O)O)C2)c1)c1cc(C)c(Cl)c(C)c1` [Example 43, (R)-1-{2-Chloro-5-[(R)-1-(4-chloro-3,5-dimethyl-phenyl)-propylamino]-benzyl}-pyrrolidine-3-carboxylic acid], the response vs control in vivo at 30 mg/kg in assay [2] came out at 21.8%. The half-maximal inhibitory concentration (IC50) at human S1P1 receptors stood at 0.8 nM.
On the same counts, the results for `CC[C@@H](Nc1cc(CN2CC[C@@H](C(=O)O)C2)c(Cl)cn1)c1ccc(Cl)c(C)c1` [Example 55, (R)-1-{5-Chloro-2-[(R)-1-(4-chloro-3-methyl-phenyl)-propylamino]-pyridin-4-ylmethyl}-pyrrolidine-3-carboxylic acid] are 43.6% and 0.5 nM.
As to `CC[C@@H](Nc1ccc(Cl)c(CN2CC(C(=O)O)C2)c1)c1cc(C)c(Cl)c(C)c1` [Example 61, 1-{2-Chloro-5-[(R)-1-(4-chloro-3,5-dimethyl-phenyl)-propylamino]-benzyl}-azetidine-3-carboxylic acid], the response vs control in vivo at 30 mg/kg in assay [2] was 16.2%. Besides, on human S1P1 receptors, the 50% inhibitory concentration (IC50) stood at 1.6 nM.
On the same counts, the results for `CC[C@@H](Nc1ccc(Cl)c(CN2CC(C(=O)O)C2)c1)c1ccc(Cl)c(C)c1` [Example 62, 1-{2-Chloro-5-[(R)-1-(4-chloro-3-methyl-phenyl)-propylamino]-benzyl}-azetidine-3-carboxylic acid] are 31.5% and 0.9 nM.
As for `Cc1cc([C@H](Nc2ccc(Cl)c(CN3CC(C)(C(=O)O)C3)c2)C(F)(F)F)ccc1Cl` [Example 65, 1-{2-Chloro-5-[(S)-1-(4-chloro-3-methyl-phenyl)-2,2,2-trifluoro-ethylamino]-benzyl}-3-methyl-azetidine-3-carboxylic acid], the response vs control in vivo at 30 mg/kg in assay [2] was determined as 22.6%. Also, the IC50 on human S1P1 receptors turned out to be 0.2 nM.
On to `Cc1cc([C@H](Nc2ccc(C)c(CN3CC(C(=O)O)C3)c2)C(F)(F)F)ccc1Cl` [Example 70, 1-{5-[(S)-1-(4-Chloro-3-methyl-phenyl)-2,2,2-trifluoro-ethylamino]-2-methyl-benzyl}-azetidine-3-carboxylic acid], for which the response vs control in vivo at 30 mg/kg in assay [2] came out at 20.2%. The IC50 at human S1P1 receptors is 0.1 nM.
`Cc1cc([C@H](Nc2cc(CN3CC[C@@H](C(=O)O)C3)c(Cl)cn2)C(F)(F)F)ccc1Cl` [Example 84, (R)-1-{5-Chloro-2-[(S)-1-(4-chloro-3-methyl-phenyl)-2,2,2-trifluoro-ethylamino]-pyridin-4-ylmethyl}-pyrrolidine-3-carboxylic acid]: the “Residual Lymphocyte Counts 24 hours after p.o. dosing” value in assay [1] is 16.8% ± 7.2. For the same compound, on human S1P1 receptors, the concentration for half-maximal inhibition (IC50) came to 0.4 nM.
For the compound `Cc1cc([C@H](Nc2cc(CNCCC(=O)O)c(Cl)cn2)C(F)(F)F)ccc1Cl` [Example 85, 3-({5-Chloro-2-[(S)-1-(4-chloro-3-methyl-phenyl)-2,2,2-trifluoro-ethylamino]-pyridin-4-ylmethyl}-amino)-propionic acid], the “Residual Lymphocyte Counts 24 hours after p.o. dosing” value in assay [1] was 11.6% ± 0.3. The IC50 on human S1P1 receptors came to 0.9 nM.
